These results are taken from patent publication US9316633B2, “Methods for identifying inhibitors of solute transporters” (The Regents of the University of California, priority 2006, dated 2016).

For assay [1], the target named is T1, UT-B (Homo sapiens, UniProt Q13336).
T1 construct: the indicator cells are red blood cells that endogenously express the UT-B urea transporter; endogenous in cells; host or cells: human red blood cells (whole venous blood, single donor)
T1 sequence (Q13336 1-389): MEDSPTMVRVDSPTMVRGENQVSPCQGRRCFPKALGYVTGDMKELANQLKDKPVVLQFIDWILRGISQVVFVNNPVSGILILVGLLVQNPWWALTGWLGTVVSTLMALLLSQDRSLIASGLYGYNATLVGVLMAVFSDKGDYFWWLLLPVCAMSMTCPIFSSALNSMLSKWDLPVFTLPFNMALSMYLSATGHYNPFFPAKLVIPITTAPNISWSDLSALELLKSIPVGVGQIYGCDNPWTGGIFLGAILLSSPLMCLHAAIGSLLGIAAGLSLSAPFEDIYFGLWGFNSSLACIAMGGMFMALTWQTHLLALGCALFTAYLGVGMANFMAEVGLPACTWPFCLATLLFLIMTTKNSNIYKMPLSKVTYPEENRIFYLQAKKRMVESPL
The assay can be described thus: Stopped-flow light scattering, urea permeability of human RBCs. The class given is cell-based. The conditions noted are these: for inhibition of urea transport, inhibitor added only to urea-containing solution (sidedness): 0.1 μM ureainh-101, 0.2 μM ureainh-302, external exposure at time of mixing; for reversibility of inhibition after washing RBCs: 10 min pre-incubation, then wash. Here is the method:
RBC urea and water permeabilities were assayed by stopped-flow light scattering using a Hi-Tech Sf-51 instrument (Wiltshire, UK). […] After an initial osmotic shrinking phase, the kinetics of increasing cell volume caused by urea influx were measured as the time-course of 90° scattered light intensity at 530 nm, with increasing cell volume resulting in reduced scattered light intensity. As a positive control, 0.7 mM phloretin was added to the RBC suspension prior to stopped-flow experiments. Measurements of water permeability were carried out similarly, with sucrose (cell-impermeant) used instead of urea to establish a 250-mM osmotic gradient. As a positive control, HgCl2 (0.3 mM) was added to the RBC suspension prior to stopped-flow measurements. Osmotic water permeability coefficients (Pf) were computed from light scattering data as described (van Hoek et al., J. Biol. Chem. 267:18267-69 (1992)).
After repeating the 96-well plate RBC lysis assay to confirm compound activity (see Example 2), bona fide urea transport inhibition was determined by stopped-flow light scattering from the kinetics of urea influx (RBC swelling) in response to an inwardly directed urea gradient. Rapid mixing of an RBC suspension with a hyperosmolar solution containing excess 250 mM urea produced rapid cell shrinking due to osmotic water efflux, followed by cell swelling as urea (and water) influx occurred.
To determine EC50 values for urea transport inhibition directly, RBC urea transport was measured by stopped-flow light scattering using a non-saturating concentration of extracellular urea (to avoid possible competition effects). EC50 for inhibition of RBC urea transport was determined independently by comparing stopped-flow light scattering curves to a model of cell shrinking-swelling.
For stopped-flow experiments, a 100-mM gradient of urea (for human RBCs) or N-methylurea (for mouse RBCs) was used to minimize competition effects (apparent urea and N-methylurea affinities at 23° C. are approximately 200 and approximately 100 mM, respectively) (Mayrand et al., J. Gen. Physiol. 81:221-37 (1983)). N-methylurea, with greater than 2-fold slower RBC permeability than urea, was used in mouse studies to better resolve overlapping water and urea transport kinetics. Dose-response data were also collected for human RBCs using a high concentration of 1 M urea to distinguish between competitive vs. non-competitive inhibitor binding.
The two coupled differential equations describing water efflux and solute influx in response to externally added urea or methylurea were numerically integrated using the forward Euler method (Δt=0.01 s) to reproduce the biphasic changes in cell volume observed experimentally. Computations that were performed using the smaller time step (Δt=0.001 s) gave similar results, confirming the adequacy of the 0.01 s time step. Water flux, Jv (in cm^3/s), across erythrocyte membranes is represented by the following equation: Jv=−Pf·S·vw·[(Ie−Ic(i))+(Ue−Uc(i))]; solute flux, Js (in mol/s), is represented by the following equation: Ps·S·(Ue−Uc(i). Permeability coefficients (Pf and Ps) are expressed in units of cm/s, cell surface area (S) in cm^2, extracellular (e) and cellular (c) concentrations of impermeant (I) and urea/methylurea (U) solute in mol/cm^3, and vw is […]. Initial conditions were Ie=Ic(0)=2.9×10^−4 mol/cm^3, Ue=10^−4 mol/cm^3, and Uc(0)=0. For each time step, a new cell volume (normalized to the initial size; V(i+1)/V(0)) and a new cell permeant concentration (U(i+1)) were calculated from V(i+1)/V(0)=V(i)/V(0)−Δt·Pf·(S/V(0))·vw·[Ie(1−V(i)/V(0))+(Ue−Uc(i))] and Uc(i+1)=Uc(i)/V(0)−Δt·Us·(S/V(0))·vw·(Ue−Uc(i)). Normalized cell volume was assumed to be inversely proportional to scattered light intensity. The product of Pf and the surface area-to-volume ratio (S/V(0)) was determined to be 3.4×10^2 s^−1 and 8.5×10^2 s^−1 for human and mouse erythrocytes, respectively, from water permeability measurements. […]

The next assay concerns urea transporter (UT). The conditions noted are these: 23° C., RBC urea transport; cited from earlier work.
Assay [2] has as its target T2, UT-B-facilitated water transport (Mus musculus, UniProt Q8VHL0).
T2 construct: endogenous in cells; host or cells: mouse red blood cells (AQP1-null and wild-type mice, CD1 background)
T2 sequence (Q8VHL0 1-384): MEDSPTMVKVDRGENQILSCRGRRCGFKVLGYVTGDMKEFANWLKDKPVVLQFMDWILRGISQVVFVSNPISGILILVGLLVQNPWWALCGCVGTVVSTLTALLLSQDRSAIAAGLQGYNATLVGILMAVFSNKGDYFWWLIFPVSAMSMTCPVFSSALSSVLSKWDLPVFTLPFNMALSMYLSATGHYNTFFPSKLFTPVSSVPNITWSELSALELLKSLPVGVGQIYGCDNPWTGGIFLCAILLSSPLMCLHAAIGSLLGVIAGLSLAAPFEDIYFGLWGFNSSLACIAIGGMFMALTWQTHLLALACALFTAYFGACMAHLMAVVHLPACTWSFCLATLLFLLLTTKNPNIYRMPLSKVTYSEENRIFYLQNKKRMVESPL
The assay can be described thus: Osmotic water permeability by stopped-flow light scattering, RBCs from AQP1-null mice. In kind it is cell-based. On the procedure: RBC urea and water permeabilities were assayed by stopped-flow light scattering using a Hi-Tech Sf-51 instrument (Wiltshire, UK). For measurement of urea permeability, dilutions of whole blood (human or mouse; see Example 1) in PBS (hematocrit: approximately 0.5%) were incubated with test compounds for 5 min and then subjected to a 250-mM inwardly directed gradient of urea. After an initial osmotic shrinking phase, the kinetics of increasing cell volume caused by urea influx were measured as the time-course of 90° scattered light intensity at 530 nm, with increasing cell volume resulting in reduced scattered light intensity. As a positive control, 0.7 mM phloretin was added to the RBC suspension prior to stopped-flow experiments. Measurements of water permeability were carried out similarly, with sucrose (cell-impermeant) used instead of urea to establish a 250-mM osmotic gradient. As a positive control, HgCl2 (0.3 mM) was added to the RBC suspension prior to stopped-flow measurements. […]
This example describes chemical knock-out of UT-B by UT-B inhibitors in RBCs and the effect on UT-B-facilitated water transport. […] Osmotic water permeability was measured by stopped-flow light scattering in RBCs from wild-type and AQP1-null mice as shown in FIG. 8A. […]

The next assay deals with RBCs from wild-type mice. The assay can be described thus: Osmotic water permeability by stopped-flow light scattering, RBCs from wild-type mice. The class given is cell-based, mouse. On the procedure:
RBC urea and water permeabilities were assayed by stopped-flow light scattering using a Hi-Tech Sf-51 instrument (Wiltshire, UK). For measurement of urea permeability, dilutions of whole blood (human or mouse; see Example 1) in PBS (hematocrit: approximately 0.5%) were incubated with test compounds for 5 min and then subjected to a 250-mM inwardly directed gradient of urea. After an initial osmotic shrinking phase, the kinetics of increasing cell volume caused by urea influx were measured as the time-course of 90° scattered light intensity at 530 nm, with increasing cell volume resulting in reduced scattered light intensity. As a positive control, 0.7 mM phloretin was added to the RBC suspension prior to stopped-flow experiments. Measurements of water permeability were carried out similarly, with sucrose (cell-impermeant) used instead of urea to establish a 250-mM osmotic gradient. As a positive control, HgCl2 (0.3 mM) was added to the RBC suspension prior to stopped-flow measurements. Osmotic water permeability coefficients (Pf) were computed from light scattering data as described (van Hoek et al., J. Biol. Chem. 267:18267-69 (1992)).
This example describes chemical knock-out of UT-B by UT-B inhibitors in RBCs and the effect on UT-B-facilitated water transport. […] Osmotic water permeability was measured by stopped-flow light scattering in RBCs from wild-type and AQP1-null mice as shown in FIG. 8A. […] AQP1-null RBCs had greater than 5-fold reduced Pf compared to wild-type RBCs.

For assay [3], the target named is T1, UT-B. The assay can be described thus: RBC lysis assay, human RBCs loaded with acetamide. The class given is cell-based. The conditions noted are these: UT-B inhibitory potency.

In the case of `CC(N)=O` [Acetamide, reference compound], at UT-B [1] (stopped-flow light scattering), the “share of transport in RBCs that is UT-B-dependent” value was “greater than 95%”.
As for `CNC(N)=O` [N-methylurea], the apparent affinity result in the assay on urea transporter (UT) is “approximately 100 mM”.
As for `NC(N)=O` [urea], the apparent affinity result with urea transporter (UT) is recorded as “approximately 200 mM”.
For `NC(=O)CSc1oc(-c2ccccc2)nc1S(=O)(=O)c1ccc(Br)cc1` [ureainh-101, 2-(4-(4-bromophenylsulfonyl)-2-phenyloxazol-5-ylthio)acetamide], on UT-B [1], the “inhibition of urea transport, inhibitor added only to urea-containing solution (sidedness)” value is given as “did not inhibit urea transport” and the “reversibility of inhibition after washing RBCs” value is “fully reversible inhibition”. In assay [2], the “effect on water permeability” value is recorded as “further inhibited”. Moreover, the “effect on water transport” value in the assay with RBCs from wild-type mice was “little effect”.
Turning to `Cc1ccc(Nc2nnc(-c3ccc(C(N)=O)cc3)c3ccccc23)cc1` [ureainh-302, 4-(4-(p-tolylamino)phthalazin-1-yl)benzamide], on UT-B [1], the “inhibition of urea transport, inhibitor added only to urea-containing solution (sidedness)” value is “sizable effect” and the “reversibility of inhibition after washing RBCs” value is reported as “fully reversible inhibition”. For the same molecule, the inhibition at 0.4 µM on UT-B [1] (0.1 μM ureainh-101, 0.4 μM ureainh-302, read-out: transport inhibition after 10 min pre-incubation) was > 95%. Also, the “effect on water permeability” value in assay [2] is “further inhibited”. Also, at UT-B [3] (Table 5, phthalazinamines), the EC50 was 0.2 µM. In addition, the “effect on water transport” value in the assay on RBCs from wild-type mice is reported as “little effect”.
For `CCn1c(NCc2cc(C)ccc2O)nc2ccccc21` [ureainh-416, 2-((1-ethyl-1H-benzo[d]imidazol-2-ylamino)methyl)-4-methylphenol], on UT-B [3] (Table 7, aminobenzimidazoles), the EC50 came to 1 µM.
Take `CCCCn1c(NCc2cc(C)ccc2O)nc2ccccc21` [ureainh-417, 2-((1-butyl-1H-benzo[d]imidazol-2-ylamino)methyl)-4-methylphenol]: the EC50 at UT-B [3] (Table 7, aminobenzimidazoles) came out at 2 µM.
For `CCCn1c(NCc2cc(OC)ccc2O)nc2ccccc21` [ureainh-418, 4-methoxy-2-((1-propyl-1H-benzo[d]imidazol-2-ylamino)methyl)phenol], on UT-B [3] (Table 7, aminobenzimidazoles), the EC50 amounted to 6 µM.
The same measure, in the same setting: the figure for `C=CCn1c(NCc2cc(OC)ccc2O)nc2ccccc21` [ureainh-419, 2-((1-allyl-1H-benzo[d]imidazol-2-ylamino)methyl)-4-methoxyphenol] is 25 µM.
On UT-B [3] (Table 7, aminobenzimidazoles), `COc1ccc(O)c(CNc2nc3ccccc3n2C(C)C)c1` [ureainh-420, 2-((1-isopropyl-1H-benzo[d]imidazol-2-ylamino)methyl)-4-methoxyphenol] displayed an EC50 of 3 µM.
On the same count and under the same terms, with `CCn1c(NCc2c(O)ccc3ccccc23)nc2ccccc21` [ureainh-421, 1-((1-ethyl-1H-benzo[d]imidazol-2-ylamino)methyl)naphthalen-2-ol] the figure was 3 µM; with `CCn1c(NCc2cccc(OC)c2O)nc2ccccc21` [ureainh-422, 2-((1-ethyl-1H-benzo[d]imidazol-2-ylamino)methyl)-6-methoxyphenol], 11 µM.
The molecule `CCn1c(NC(C)c2cc(Cl)ccc2O)nc2ccccc21` (stereo not drawn) [ureainh-423, 4-chloro-2-(1-(1-ethyl-1H-benzo[d]imidazol-2-ylamino)ethyl)phenol] registered an EC50 on UT-B [3] (Table 7, aminobenzimidazoles) of 5 µM.
